Reference: US20060199241A1, “Electrochemically and optically monitoring cleaving enzyme activity” (priority 2005, published 2006)

Test system: APO-GDH
Assay: Homogeneous optical and electrochemical assay with GDH and PQQ
Assay type: biochemical
Settings: APO-GDH 1 μM, 2 mM CaCl2, 40 mM glucose, 50 μM PMS, redox indicator (DCIP, resazurin or thionine)
Protocol: Homogeneous Optical and Electrochemical Assay for DNA with GDH and PQQ (See FIG. 8) The PQQ solutions (variable concentrations) included APO-GDH (1 μM), 2 mM CaCl2, and 40 mM Glucose. 50 μM PMS and a redox indicator (0.1-0.2 mM DCIP, 0.025 mM resazurin, or 0.05 mM thionine) were also added. PQQ at 0.1 nM was detectable.

`O=C(O)c1cc(C(=O)O)c2c(n1)C(=O)C(=O)c1cc(C(=O)O)[nH]c1-2` [PQQ, pyrroloquinoline quinone] was tested, and the “PQQ concentration detectable (GDH enzyme activity)” value was 0.1 nM.
